How the values were obtained:
[1] = molecular target: T1, human D4 receptor (D4.2 sub-type) (Homo sapiens, UniProt P21917, DEL265-296); assay: Dopamine D4 receptor binding assay (displacement of 3H-spiperone); conditions: 3H-spiperone 0.25 nM, transfected with human D4.2, room temperature, 90 min; read-out: Receptor affinity D4 (Ki)
T1 construct: expressed in transfected cells; host or cells: HEK 298 (so in the source)
T1 sequence (P21917 with tags, fused parts or gaps DEL265-296): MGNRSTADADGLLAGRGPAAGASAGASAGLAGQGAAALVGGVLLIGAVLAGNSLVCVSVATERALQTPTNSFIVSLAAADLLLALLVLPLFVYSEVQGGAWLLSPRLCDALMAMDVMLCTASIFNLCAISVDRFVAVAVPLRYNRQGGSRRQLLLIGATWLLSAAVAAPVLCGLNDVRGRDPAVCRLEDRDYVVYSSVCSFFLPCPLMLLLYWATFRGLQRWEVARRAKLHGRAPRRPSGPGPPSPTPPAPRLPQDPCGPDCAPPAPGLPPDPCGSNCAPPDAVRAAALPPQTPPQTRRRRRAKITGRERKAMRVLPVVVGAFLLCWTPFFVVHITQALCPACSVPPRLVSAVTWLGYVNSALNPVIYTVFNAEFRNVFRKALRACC
Method: Dopamine Receptor Binding Assay
The cells were then centrifuged in a Sorval centrifuge for 10 minutes, 5000 rpm (GS3 rotor) and the pellets quickly frozen in liquid nitrogen and stored at -80° C. until used in binding assay. When used in the assay, cells were thawed on ice for 20 minutes and then 10 mL of incubation buffer (50 mM Tris, 1 mM EDTA, 4 mM MgCl2, 5 mM KCl, 1.5 mM CaCl2, 120 mM NaCl, pH7.4) was added. […] Concentration of receptor protein was determined using the Pierce BCA assay.

[2] = molecular target: 5-HT2 receptor (Rattus norvegicus, UniProt P14842); assay: 5-HT2 receptor binding assay (displacement of 3H-ketanserin)
[3] = molecular target: T2, human D2 receptor (short isoform) (Homo sapiens, UniProt P14416); assay: Dopamine D2 receptor binding assay (displacement of 3H-spiperone); conditions: 3H-spiperone 0.25 nM, GH4C1 cells transfected with human D2 short isoform, room temperature, 90 min; read-out: Receptor affinity D2 (Ki)
T2 construct: expressed in transfected cells
Method: GH4 C1 (rat pituitary) cells stably transfected with the human D2 receptor (short isoform) were grown in CO2 independent media in roller bottles (1500 cm^2) for 10 days. 100 μM ZnSO4 was added to the cells (the D2 promoter being zinc inducible). After 16 hours, fresh media was added to allow the cells to recover for 24 hours. The cells were harvested using versene and then centrifuged in a Sorval centrifuge for 10 minutes, at 5000 rpm (GS3 rotor). Pellets were quickly frozen in liquid nitrogen and stored at -80° C. until used in the binding assays. When used in the assay, cells were thawed on ice for 20 minutes. Each roller bottle produced approximately 72 mg of protein.
This assay employed the same procedures as the non-specific binding assay for D4 with the exception that 2 μM (final conc.) of (-) sulpiride (Research Chemicals Inc.) was used in place of dopamine.

[4] = molecular target: muscarinic M1/M2 receptor; assay: Muscarinic M1/M2 receptor binding assay (displacement of 3H-QNB); conditions: 3H-QNB 0.126 nM, rat frontal cortex membranes, 32° C., 60 min, pH 7.4; read-out: Receptor affinity M1/M2 (Ki)

5-HT2 receptor, sequence (P14842 whole entry, canonical isoform): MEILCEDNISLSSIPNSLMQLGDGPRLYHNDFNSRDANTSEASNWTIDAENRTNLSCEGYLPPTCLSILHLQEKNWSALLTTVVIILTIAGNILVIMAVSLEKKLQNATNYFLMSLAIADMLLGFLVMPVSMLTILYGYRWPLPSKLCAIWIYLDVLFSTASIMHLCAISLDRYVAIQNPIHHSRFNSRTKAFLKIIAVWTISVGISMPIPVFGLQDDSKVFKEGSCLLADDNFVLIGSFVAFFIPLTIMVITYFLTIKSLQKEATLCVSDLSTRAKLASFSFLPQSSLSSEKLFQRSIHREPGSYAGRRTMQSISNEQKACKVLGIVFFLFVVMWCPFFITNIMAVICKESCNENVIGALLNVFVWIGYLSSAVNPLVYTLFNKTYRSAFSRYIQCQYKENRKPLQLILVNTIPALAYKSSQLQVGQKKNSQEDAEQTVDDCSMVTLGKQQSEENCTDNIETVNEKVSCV
T2 sequence (P14416 1-414 isoform P14416-2): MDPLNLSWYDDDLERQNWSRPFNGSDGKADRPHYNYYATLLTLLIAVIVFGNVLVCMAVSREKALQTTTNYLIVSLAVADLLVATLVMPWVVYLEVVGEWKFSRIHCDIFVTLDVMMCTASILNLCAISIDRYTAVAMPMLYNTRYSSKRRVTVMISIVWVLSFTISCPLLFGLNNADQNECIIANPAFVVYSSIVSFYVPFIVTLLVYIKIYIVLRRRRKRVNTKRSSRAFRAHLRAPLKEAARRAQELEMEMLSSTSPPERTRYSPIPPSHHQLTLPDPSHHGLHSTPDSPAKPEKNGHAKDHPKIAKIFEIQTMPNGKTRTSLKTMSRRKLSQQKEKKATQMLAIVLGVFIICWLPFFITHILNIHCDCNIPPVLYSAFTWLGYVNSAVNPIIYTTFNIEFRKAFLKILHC

| Structure (SMILES) | Ki [1] [nM] | Ki [2] [nM] | Ki [3] [nM] | Ki [4] [nM] |
| --- | --- | --- | --- | --- |
| CN1CC2CC1CN2C1=Nc2cc(Cl)c(Cl)cc2Nc2ccccc21 (stereo not drawn) [7,8-dichloro-11-(2-methyl-2,5-diazabicyclo(2.2.1)hept-5-yl)-dibenzo[b,e][1,4]diazepine] | 4770 | 1600 | 4710 | 41 |
| CN1CC2CC1CN2C1=Nc2cc(Cl)ccc2Oc2ccccc21 (stereo not drawn) [8-chloro-11-(2-methyl-2,5-diazabicyclo(2.2.1)hept-5-yl)-dibenz[b,f][1,4]oxazepine] | 4770 | 1020 | 4520 | 28 |
| c1ccc(CN2CC3CC2CN3C2=Nc3ccccc3Oc3ccccc32)cc1 (stereo not drawn) [11-(2-benzyl-2,5-diazabicyclo(2.2.1)hept-5-yl)-dibenz[b,f][1,4]oxazepine] | 632 | 3670 | 1330 | 882 |
